From PMC9469500, “Targeting an Initiator Allergen Provides Durable and Expansive Protection against House Dust Mite Allergy” (ACS Pharmacology & Translational Science, 2022)
Converted amounts (≈) assume the structure as drawn.

Experiments:
thermodynamic solubility = assay type: physicochemical; conditions: thermodynamic from solid
[1] = hepatocyte stability (human); assay type: in vitro ADME; conditions: hepatocytes
[2] = test system: rat alveolar macrophage line NR8383; assay: Cellular stability in macrophages; assay type: in vitro ADME; conditions: 100 nM compound
Experimental: (§1) Cellular Stability of Compounds
(§2) The cellular stability of compounds in vitro was tested using rat airway epithelial cell line L2 and rat alveolar macrophage line NR8383 (ATCC©CRL-2192™). Assays were performed in replicate and the data expressed as mean ± s.e. mean. L2 cells were cultured to confluence in T25 flasks or 24 -well plates using Kaighn’s modification of Ham’s F12 medium (F12K). Cells were prepared for assay by washing 3 times with serum-free F12K. NR8383 Airway macrophages were grown in suspension culture in F12K, collected by centrifugation, washed in serum-free medium and aliquoted into test plates (1.4 x 10^6 cells/well). Both cell lines were treated with ADI compounds (100 nM) in serum -free F12K in a 5% CO 2 environment at 37 °C. Samples were removed for quantitative analysis by LC -MS-MS using appropriate multiple reaction monitoring transitions for each analyte. […]
(§3) n-Octanol (0.7 mL), pre -saturated with 10 mM PBS, pH7.4, was added to test compound (~1 mg) in a 2 mL HPLC vial followed by PBS (0. 7 mL), which had been pre -saturated with n -octanol. The mixture was shaken for 90 min before centrifugation for 10 min at 4,000 rpm. The upper organic layer (0.2 mL) and the aqueous layer (0.5 mL) were removed for analysis by LC-MS. Peak identity was confirmed by mass spectrometry and concentration assessed spectrophotometrically using a diode array detector. The log

[3] = Plasma protein binding (human); assay type: in vitro ADME
Experimental: Plasma Protein Binding Assay
Plasma protein binding (PPB) was determined using Rapid Equilibrium Dialysis chambers with 8 kDa cut-off inserts (Fisher Scientific UK Ltd, Leicestershire, UK). Rat (Sprague Dawley strain) plasma EDTA K2 (pooled, mixed sex, SeraLab, West Sussex, UK) was centrifuged (13,000 x g, 10 min) to remove precipitates before addition of compounds (initial concentration 5 µM). Concentrations were determined by liquid chromatography-tandem mass spectrometry (LC-MS-MS) (AB Sciex 3200 QTrap) after 4 h incubation at 37 °C with binding being calculated from the concentration of compound in each chamber. Assays were performed in replicate and the data expressed as mean ± s.e.
Cellular Stability of Compounds […]
Kaighn’s modification of Ham’s F12 medium (F12K). Cells were prepared for assay by washing 3 times with serum-free F12K. NR8383 Airway macrophages were grown in suspension culture in F12K, collected by centrifugation, washed in serum-free medium and aliquoted into test plates (1.4 x 10^6 cells/well). Both cell lines were treated with ADI compounds (100 nM) in serum -free F12K in a 5% CO 2 environment at 37 […]
n-Octanol (0.7 mL), pre -saturated with 10 mM PBS, pH7.4, was added to test compound (~1 mg) in a 2 mL HPLC vial followed by PBS (0. 7 mL), which had been pre -saturated with n -octanol. […]

[4] = hepatocyte stability (rat); assay type: in vitro ADME; conditions: hepatocytes
sensitized Balb/c mice = assay: HDM extract challenge in sensitized Balb/c mice (BAL flow cytometry); assay type: in vivo; conditions: HDM 10; i.t. 2 h prior to challenge; BAL 48 h
Experimental: Mice (female Balb/c 20 ± 2 g, Charles River) were isolator maintained in ventilated cages (Allentown IVC Racks, 36 Mini Isolator System, USA) that had been prepared for use by prior autoclaving. Environmental controls were 22–24 °C/60–80% relative humidity on a 12 h light/dark cycle. Animals were allowed ad libitum access to reverse osmosis-purified water and food (MF-18 laboratory rodent diet). Where prestudy serum samples were mandated, these were taken from the retro-orbital sinus on acclimatization in the isolator facility. Animals were randomly assigned to groups and sensitized to the HDM extract or treated with the vehicle on days 0, 7, and 14. […] Animals were anesthetized with propofol 48 h later (AstraZeneca, 10 mg/mL, 50 μL/mouse, i.v.), and terminal blood samples were taken from the retro-orbital sinus. BAL (3 × 0.5 mL aliquots of PBS) was performed, and the returns were combined for enumeration.
Flow cytometry (FACS) of BAL fluid was performed with a BD FACSAria instrument (Becton Dickinson Biosciences, USA) and the FACSDiva software. Analyses were performed by operators who were unaware of the sample identity. […]

plasma stability (human) = assay type: in vitro ADME
[5] = test system: rat airway epithelial cell line L2; assay: Cellular stability in L2 cells; assay type: in vitro ADME; conditions: 100 nM compound
Experimental: as §1, §2, §3

plasma stability (rat) = assay type: in vitro ADME
[6] = read-out: hepatocyte intrinsic clearance

Experimental for Pharmacokinetics in rats: Soluble formulations were developed and verified by high performance liquid chromatography (HPLC)
1 mL/kg) and p.o. (5 mg/kg, 5 mL/kg) in non-fasted Sprague-Dawley rats (male, 200-300 g, 10-16 weeks
of age, groups of three animals per route per compound). Timed blood samples were taken after dosing
and plasma prepared for LC-MS-MS quantification of the test substance after inclusion of an internal
standard. A non -compartmental model in WinNonlin software was used to calculate pharmacokinetic

## CC(C)[C@H](NC(=O)[C@H](C)NC(=O)[C@@H](NC(=O)c1ccccc1)C(C)(C)C)C(=O)C(=O)NCc1ccccc1 [Compound 1, N-{(S)-1-[(S)-1-((S)-1-benzylaminooxalyl-2-methyl-propylcarbamoyl)-ethylcarbamoyl]-2,2-dimethyl-propyl}-benzamide]
Thermodynamic solubility
  solubility thermodynamic: 84 µM (≈ 43.9 µg/mL)
Pharmacokinetics in rats; male, Sprague-Dawley, rat, plasma, po, 5 mg/kg
  bioavailability: 39%
Pharmacokinetics in rats; male, Sprague-Dawley, rat, plasma, po, 5 mg/kg, rat p.o., fasted
  half-life: 2.1 h
Pharmacokinetics in rats; male, Sprague-Dawley, rat, plasma, po, 5 mg/kg, rat p.o., fed
  half-life: 2.9 h
Pharmacokinetics in rats; rat p.o.
  volume of distribution: 0.9 L/kg
Pharmacokinetics in rats; rat p.o., fasted
  clearance: 27 (fasted) mL/min/kg
[1]
  half-life: 3.02 h
[1]; [6]
  CLint scaled: 11.7 mL/min/kg
[2]
  cell stability: 100; 100
[3]
  fraction unbound at 4 h, 5 µM: 0.004
[4]
  half-life: 1.97 h
[4]; [6]
  CLint scaled: 28.2 mL/min/kg
Sensitized Balb/c mice
  doses required for good activity against the HDM extract: > 0.01 mg/kg
Plasma stability (human)
  remaining at 2 h: 100%
[5]
  cell stability: 100; 100
Plasma stability (rat)
  remaining at 2 h: 100%
